In the NIST ThermoML archive (doi:10.1021/acs.jced.8b01135):

Assay: xn = mol fraction of the nth substance listed
Conditions: 102 kPa, Liquid; for speed of sound: Frequency=3 MHz, Single path-length method; for mass density: Vibrating tube method; for viscosity: Concentric cylinders viscometry

CCCCCCC1CCCCC1 [hexylcyclohexane] + CCCCCCCCCCCC
Conditions | mass density [kg/m3] | speed of sound [m/s] | viscosity [mPa·s]
288.15 K, x1 = 0.1009 | 757.85 | 1322.7 | –
288.15 K, x1 = 0.1998 | 763.33 | 1328.2 | –
288.15 K, x1 = 0.3001 | 768.99 | 1334.2 | –
288.15 K, x1 = 0.4001 | 774.72 | 1340.2 | –
288.15 K, x1 = 0.5004 | 780.57 | 1346.3 | –
288.15 K, x1 = 0.5996 | 786.46 | 1352.5 | –
288.15 K, x1 = 0.7005 | 792.54 | 1359.2 | –
288.15 K, x1 = 0.7996 | 798.63 | 1365.9 | –
288.15 K, x1 = 0.8997 | 804.88 | 1373 | –
288.15 K, x1 = 1 | 811.34 | 1380.4 | –
293.15 K, x1 = 0.1002 | – | – | 1.53
293.15 K, x1 = 0.1009 | 754.24 | 1303.2 | –
293.15 K, x1 = 0.1998 | 759.72 | 1308.8 | –
293.15 K, x1 = 0.201 | – | – | 1.58
293.15 K, x1 = 0.3 | – | – | 1.64
293.15 K, x1 = 0.3001 | 765.39 | 1314.7 | –
293.15 K, x1 = 0.3998 | – | – | 1.7
293.15 K, x1 = 0.4001 | 771.13 | 1320.7 | –
293.15 K, x1 = 0.5002 | – | – | 1.76
293.15 K, x1 = 0.5004 | 776.99 | 1326.9 | –
293.15 K, x1 = 0.5996 | 782.88 | 1333.2 | –
293.15 K, x1 = 0.5999 | – | – | 1.83
293.15 K, x1 = 0.6998 | – | – | 1.91
293.15 K, x1 = 0.7005 | 788.97 | 1339.8 | –
293.15 K, x1 = 0.7996 | 795.06 | 1346.5 | –
293.15 K, x1 = 0.8001 | – | – | 1.99
293.15 K, x1 = 0.8997 | 801.31 | 1353.4 | –
293.15 K, x1 = 0.8998 | – | – | 2.08
293.15 K, x1 = 1 | 807.76 | 1360.9 | 2.19
298.15 K, x1 = 0.1009 | 750.61 | 1283.8 | –
298.15 K, x1 = 0.1998 | 756.11 | 1289.4 | –
298.15 K, x1 = 0.3001 | 761.78 | 1295.3 | –
298.15 K, x1 = 0.4001 | 767.53 | 1301.3 | –
298.15 K, x1 = 0.5004 | 773.39 | 1307.5 | –
298.15 K, x1 = 0.5996 | 779.29 | 1313.8 | –
298.15 K, x1 = 0.7005 | 785.38 | 1320.4 | –
298.15 K, x1 = 0.7996 | 791.48 | 1327.1 | –
298.15 K, x1 = 0.8997 | 797.74 | 1334 | –
298.15 K, x1 = 1 | 804.19 | 1341.4 | –
303.15 K, x1 = 0.1002 | – | – | 1.3
303.15 K, x1 = 0.1009 | 746.99 | 1264.6 | –
303.15 K, x1 = 0.1998 | 752.5 | 1270.2 | –
303.15 K, x1 = 0.201 | – | – | 1.34
303.15 K, x1 = 0.3 | – | – | 1.38
303.15 K, x1 = 0.3001 | 758.17 | 1276.1 | –
303.15 K, x1 = 0.3998 | – | – | 1.43
303.15 K, x1 = 0.4001 | 763.92 | 1282.1 | –
303.15 K, x1 = 0.5002 | – | – | 1.48
303.15 K, x1 = 0.5004 | 769.79 | 1288.3 | –
303.15 K, x1 = 0.5996 | 775.7 | 1294.6 | –
303.15 K, x1 = 0.5999 | – | – | 1.54
303.15 K, x1 = 0.6998 | – | – | 1.6
303.15 K, x1 = 0.7005 | 781.79 | 1301.2 | –
303.15 K, x1 = 0.7996 | 787.89 | 1307.8 | –
303.15 K, x1 = 0.8001 | – | – | 1.66
303.15 K, x1 = 0.8997 | 794.16 | 1314.7 | –
303.15 K, x1 = 0.8998 | – | – | 1.74
303.15 K, x1 = 1 | 800.61 | 1322.1 | 1.79
313.15 K, x1 = 0.1002 | – | – | 1.11
313.15 K, x1 = 0.1009 | 739.73 | 1226.8 | –
313.15 K, x1 = 0.1998 | 745.25 | 1232.4 | –
313.15 K, x1 = 0.201 | – | – | 1.14
313.15 K, x1 = 0.3 | – | – | 1.17
313.15 K, x1 = 0.3001 | 750.94 | 1238.3 | –
313.15 K, x1 = 0.3998 | – | – | 1.21
313.15 K, x1 = 0.4001 | 756.7 | 1244.3 | –
313.15 K, x1 = 0.5002 | – | – | 1.25
313.15 K, x1 = 0.5004 | 762.59 | 1250.5 | –
313.15 K, x1 = 0.5996 | 768.5 | 1256.8 | –
313.15 K, x1 = 0.5999 | – | – | 1.3
313.15 K, x1 = 0.6998 | – | – | 1.34
313.15 K, x1 = 0.7005 | 774.6 | 1263.4 | –
313.15 K, x1 = 0.7996 | 780.72 | 1270.1 | –
313.15 K, x1 = 0.8001 | – | – | 1.4
313.15 K, x1 = 0.8997 | 786.99 | 1276.9 | –
313.15 K, x1 = 0.8998 | – | – | 1.46
313.15 K, x1 = 1 | 793.43 | 1284.2 | 1.52
323.15 K, x1 = 0.1002 | – | – | 0.958
323.15 K, x1 = 0.1009 | 732.44 | 1189.7 | –
323.15 K, x1 = 0.1998 | 737.97 | 1195.4 | –
323.15 K, x1 = 0.201 | – | – | 0.986
323.15 K, x1 = 0.3 | – | – | 1.01
323.15 K, x1 = 0.3001 | 743.68 | 1201.3 | –
323.15 K, x1 = 0.3998 | – | – | 1.05
323.15 K, x1 = 0.4001 | 749.46 | 1207.4 | –
323.15 K, x1 = 0.5002 | – | – | 1.08
323.15 K, x1 = 0.5004 | 755.35 | 1213.6 | –
323.15 K, x1 = 0.5996 | 761.28 | 1219.8 | –
323.15 K, x1 = 0.5999 | – | – | 1.12
323.15 K, x1 = 0.6998 | – | – | 1.15
323.15 K, x1 = 0.7005 | 767.39 | 1226.4 | –
323.15 K, x1 = 0.7996 | 773.52 | 1233.1 | –
323.15 K, x1 = 0.8001 | – | – | 1.2
323.15 K, x1 = 0.8997 | 779.8 | 1239.8 | –
323.15 K, x1 = 0.8998 | – | – | 1.25
323.15 K, x1 = 1 | 786.25 | 1247.1 | 1.3
333.15 K, x1 = 0.1002 | – | – | 0.833
333.15 K, x1 = 0.1009 | 725.11 | 1153.6 | –
333.15 K, x1 = 0.1998 | 730.66 | 1159.3 | –
333.15 K, x1 = 0.201 | – | – | 0.855
333.15 K, x1 = 0.3 | – | – | 0.88
333.15 K, x1 = 0.3001 | 736.38 | 1165.3 | –
333.15 K, x1 = 0.3998 | – | – | 0.906
333.15 K, x1 = 0.4001 | 742.18 | 1171.3 | –
333.15 K, x1 = 0.5002 | – | – | 0.935
333.15 K, x1 = 0.5004 | 748.09 | 1177.6 | –
333.15 K, x1 = 0.5996 | 754.02 | 1183.9 | –
333.15 K, x1 = 0.5999 | – | – | 0.966
333.15 K, x1 = 0.6998 | – | – | 1
333.15 K, x1 = 0.7005 | 760.16 | 1190.5 | –
333.15 K, x1 = 0.7996 | 766.29 | 1197.1 | –
333.15 K, x1 = 0.8001 | – | – | 1.04
333.15 K, x1 = 0.8997 | 772.58 | 1203.6 | –
333.15 K, x1 = 0.8998 | – | – | 1.07
333.15 K, x1 = 1 | 779.05 | 1211 | 1.12
